Values quoted from earlier work in patent publication US10085973B2, “Pharmaceutical composition containing a compound having a thrombopoietin receptor agonistic activity” (Shionogi & Co., Ltd., priority 2012, dated 2018).
Where two headings read alike, the source gives them in different places.

Test system: chronic liver disease patients with platelet count of less than 5×10^4/μL
Conditions: cited from earlier work

CC1=NN(c2ccc(C)c(C)c2)C(=O)/C1=N\Nc1cccc(-c2cccc(C(=O)O)c2)c1O [Eltrombopag]
avoidance of platelet transfusion (active drug group, administered for 2 weeks before invasive procedures): 72%
incidence of portal vein thrombosis (active drug group): 4%
risk of development of portal vein thrombosis (group having platelet count of 20×10^4/μL or higher during the investigation period): 10.6%
risk of development of portal vein thrombosis (group with platelet count of less than 20×10^4/μL): 1.2%
risk of portal vein thrombosis, group 20×10^4/μL or higher vs group less than 20×10^4/μL (human, in vivo): about 9 times
cases with platelet count 20×10^4/μL or higher at the time of development of portal vein thrombosis (out of 6 cases in the active drug group): 5
